Patent US20100061928A1, “LABELLED ANALOGUES OF HALOBENZAMIDES AS RADIOPHARMACEUTICALS” (Institut National De La Sante et De La Recherche Medicale …, priority 2006, published 2010)
Where a name gives a salt, the structure may show the parent alone. One block for each compound: values may come before it.

How the values were obtained:
[1] = test system: grafted B16 F0 murine melanoma tumour; assay: Biodistribution of the ^125I-labelled molecules in the melanoma-bearing mouse (autoradiography of whole-body sections); conditions: ^125I-labelled compound
Method: The distribution of the radioactivity of the various compounds in the body (tumour and other organs) is quantified using an Ambis 4000 image analyzer on sections of whole animals. […] All the in vivo experimentation is carried out within the context defined by French legislation relating to animal experimentation.
The B16 F0 melanoma cells are provided by the ATCC and cultured in monolayers in culture medium (MEM, Invitrogen) supplemented with 10% foetal calf serum and antibiotics. The cultures are maintained by subculturing after trypsinization. The cells of the first passages are frozen and stored in liquid nitrogen. For the transplanting, the cells in culture at confluence are detached by trypsinization and washed with phosphate buffer (PBS).
The distribution of the radioactivity present in the sections is analyzed using an AMBIS 4000 analyzer (Scanalytics, CSPI, San Diego, Calif.), which is a proportional counter with a multiwire chamber validated and calibrated beforehand for the monitoring of iodine in the mouse. The measurements require acquisition times of 1000 minutes. […] The value of radioactivity per unit of surface area (cpm/mm^2) is converted to concentration (kBq/g) and expressed as percentage of the injected dose/g of tissue (% ID/g).

tumour = assay: Dosimetry with regard to the tumour (MIRD programme, extrapolated to ^131I); conditions: for Effective period: extrapolated to 131I labelling; for Biological period: from biodistribution data
[2] = Elimination of the molecules: cumulative urinary and faecal excretion 0-72 hours; format: in vivo, mouse; conditions: for Faecal elimination 0-72 hours (Faeces) / Urinary and faecal elimination 0-72 hours (Total) / Urinary elimination 0-72 hours (Urine): cumulative excretion 0-72 hours; for Faecal elimination 0-72 hours (Faeces) / Urinary elimination 0-72 hours (Urine): mice in metabolic cages; for Urinary and faecal elimination 0-72 hours (Total): urine + faeces; for elimination route (in words): urinary versus faecal, 0-72 hours

- Concentration of radioactivity, B 16 (tumour), Mean ([1]; 1 H after i.v. administration): 15.49 % ID/g
- Concentration of radioactivity, GB (gall bladder), Mean ([1]; 1 H after i.v. administration): 8.68 % ID/g
- Concentration of radioactivity, Ic (intestinal contents), Mean ([1]; 1 H after i.v. administration): 13.44 % ID/g
- Concentration of radioactivity, SV (seminal vesicles), Mean ([1]; 1 H after i.v. administration): 6.79 % ID/g
- Concentration of radioactivity, Sc (stomach contents), Mean ([1]; 1 H after i.v. administration): 34.80 % ID/g
- Concentration of radioactivity, blood (measured in the heart cavity), Mean ([1]; 1 H after i.v. administration): 6.67 % ID/g
- Concentration of radioactivity, brain, Mean ([1]; 1 H after i.v. administration): 0.64 % ID/g
- Concentration of radioactivity, kidney, Mean ([1]; 1 H after i.v. administration): 6.08 % ID/g
- Concentration of radioactivity, liver, Mean ([1]; 1 H after i.v. administration): 5.14 % ID/g
- Concentration of radioactivity, lungs, Mean ([1]; 1 H after i.v. administration): 7.59 % ID/g
- Concentration of radioactivity, muscle (skeletal muscle), Mean ([1]; 1 H after i.v. administration): 1.48 % ID/g
- Concentration of radioactivity, pancreas, Mean ([1]; 1 H after i.v. administration): 3.94 % ID/g
- Concentration of radioactivity, spleen, Mean ([1]; 1 H after i.v. administration): 5.44 % ID/g
- Concentration of radioactivity, testicles, Mean ([1]; 1 H after i.v. administration): 4.11 % ID/g
- Concentration of radioactivity, thyroid, Mean ([1]; 1 H after i.v. administration): 25.29 % ID/g
- Concentration of radioactivity, uvea (pigmented tissues of the eye), Mean ([1]; 1 H after i.v. administration): 16.66 % ID/g
- Concentration of radioactivity, B 16 (tumour), Mean ([1]; 3 H after i.v. administration): 9.27 % ID/g
- Concentration of radioactivity, GB (gall bladder), Mean ([1]; 3 H after i.v. administration): 6.78 % ID/g
- Concentration of radioactivity, Ic (intestinal contents), Mean ([1]; 3 H after i.v. administration): 4.94 % ID/g
- Concentration of radioactivity, SV (seminal vesicles), Mean ([1]; 3 H after i.v. administration): 3.78 % ID/g
- Concentration of radioactivity, Sc (stomach contents), Mean ([1]; 3 H after i.v. administration): 42.71 % ID/g
- Concentration of radioactivity, blood (measured in the heart cavity), Mean ([1]; 3 H after i.v. administration): 4.22 % ID/g
- Concentration of radioactivity, brain, Mean ([1]; 3 H after i.v. administration): 0.22 % ID/g
- Concentration of radioactivity, kidney, Mean ([1]; 3 H after i.v. administration): 3.26 % ID/g
- Concentration of radioactivity, liver, Mean ([1]; 3 H after i.v. administration): 3.01 % ID/g
- Concentration of radioactivity, lungs, Mean ([1]; 3 H after i.v. administration): 3.96 % ID/g
- Concentration of radioactivity, pancreas, Mean ([1]; 3 H after i.v. administration): 2.53 % ID/g
- Concentration of radioactivity, spleen, Mean ([1]; 3 H after i.v. administration): 2.68 % ID/g
- Concentration of radioactivity, testicles, Mean ([1]; 3 H after i.v. administration): 2.43 % ID/g
- Concentration of radioactivity, thyroid, Mean ([1]; 3 H after i.v. administration): 59.09 % ID/g
- Concentration of radioactivity, uvea (pigmented tissues of the eye), Mean ([1]; 3 H after i.v. administration): 12.69 % ID/g
- Concentration of radioactivity, B 16 (tumour), Mean ([1]; 6 H after i.v. administration): 6.97 % ID/g
- Concentration of radioactivity, GB (gall bladder), Mean ([1]; 6 H after i.v. administration): 4.90 % ID/g
- Concentration of radioactivity, Ic (intestinal contents), Mean ([1]; 6 H after i.v. administration): 2.98 % ID/g
- Concentration of radioactivity, SV (seminal vesicles), Mean ([1]; 6 H after i.v. administration): 3.55 % ID/g
- Concentration of radioactivity, Sc (stomach contents), Mean ([1]; 6 H after i.v. administration): 50.21 % ID/g
- Concentration of radioactivity, blood (measured in the heart cavity), Mean ([1]; 6 H after i.v. administration): 3.71 % ID/g
- Concentration of radioactivity, brain, Mean ([1]; 6 H after i.v. administration): 0.12 % ID/g
- Concentration of radioactivity, kidney, Mean ([1]; 6 H after i.v. administration): 3.05 % ID/g
- Concentration of radioactivity, liver, Mean ([1]; 6 H after i.v. administration): 2.09 % ID/g
- Concentration of radioactivity, lungs, Mean ([1]; 6 H after i.v. administration): 3.21 % ID/g
- Concentration of radioactivity, muscle (skeletal muscle), Mean ([1]; 6 H after i.v. administration): 0.53 % ID/g
- Concentration of radioactivity, pancreas, Mean ([1]; 6 H after i.v. administration): 2.27 % ID/g
- Concentration of radioactivity, spleen, Mean ([1]; 6 H after i.v. administration): 2.35 % ID/g
- Concentration of radioactivity, testicles, Mean ([1]; 6 H after i.v. administration): 2.01 % ID/g
- Concentration of radioactivity, thyroid, Mean ([1]; 6 H after i.v. administration): 7.92 % ID/g
- Concentration of radioactivity, uvea (pigmented tissues of the eye), Mean ([1]; 6 H after i.v. administration): 11.50 % ID/g
- Concentration of radioactivity, B 16 (tumour), Mean ([1]; 24 H after i.v. administration): 2.69 % ID/g
- Concentration of radioactivity, Sc (stomach contents), Mean ([1]; 24 H after i.v. administration): 1.46 % ID/g
- Concentration of radioactivity, thyroid, Mean ([1]; 24 H after i.v. administration): 111.30 % ID/g
- Concentration of radioactivity, uvea (pigmented tissues of the eye), Mean ([1]; 24 H after i.v. administration): 6.07 % ID/g
- Concentration of radioactivity, B 16 (tumour), Mean ([1]; 72 H after i.v. administration): 0.87 % ID/g
- Concentration of radioactivity, kidney, Mean ([1]; 72 H after i.v. administration): 1.09 % ID/g
- Concentration of radioactivity, thyroid, Mean ([1]; 72 H after i.v. administration): 178.80 % ID/g
- Concentration of radioactivity, uvea (pigmented tissues of the eye), Mean ([1]; 72 H after i.v. administration): 2.54 % ID/g
- Effective period (tumour): 17.3 h
- Biological period (tumour): 19.0 hours
- Faecal elimination 0-72 hours (Faeces) [2]: 5.3%
- Urinary and faecal elimination 0-72 hours (Total) [2]: 72.6%
- Urinary elimination 0-72 hours (Urine) [2]: 67.3%
- elimination route (in words) [2]: predominantly in the urine
Compound: CCN(CC)CCNC(=O)c1ccc(I)nc1 [compound 7, N-(2-diethylaminoethyl)-6-iodonicotinamide dihydrochloride]

- Concentration of radioactivity, B 16 (tumour), Mean ([1]; 1 H after i.v. administration): 8.31 % ID/g
- Concentration of radioactivity, Ic (intestinal contents), Mean ([1]; 1 H after i.v. administration): 76.74 % ID/g
- Concentration of radioactivity, Sc (stomach contents), Mean ([1]; 1 H after i.v. administration): 35.41 % ID/g
- Concentration of radioactivity, blood (measured in the heart cavity), Mean ([1]; 1 H after i.v. administration): 1.60 % ID/g
- Concentration of radioactivity, brain, Mean ([1]; 1 H after i.v. administration): 4.84 % ID/g
- Concentration of radioactivity, kidney, Mean ([1]; 1 H after i.v. administration): 10.87 % ID/g
- Concentration of radioactivity, liver, Mean ([1]; 1 H after i.v. administration): 11.86 % ID/g
- Concentration of radioactivity, lungs, Mean ([1]; 1 H after i.v. administration): 14.41 % ID/g
- Concentration of radioactivity, muscle (skeletal muscle), Mean ([1]; 1 H after i.v. administration): 1.50 % ID/g
- Concentration of radioactivity, pancreas, Mean ([1]; 1 H after i.v. administration): 7.15 % ID/g
- Concentration of radioactivity, spleen, Mean ([1]; 1 H after i.v. administration): 8.09 % ID/g
- Concentration of radioactivity, uvea (pigmented tissues of the eye), Mean ([1]; 1 H after i.v. administration): 11.70 % ID/g
- Concentration of radioactivity, B 16 (tumour), Mean ([1]; 3 H after i.v. administration): 10.22 % ID/g
- Concentration of radioactivity, Ic (intestinal contents), Mean ([1]; 3 H after i.v. administration): 112.56 % ID/g
- Concentration of radioactivity, Sc (stomach contents), Mean ([1]; 3 H after i.v. administration): 18.52 % ID/g
- Concentration of radioactivity, blood (measured in the heart cavity), Mean ([1]; 3 H after i.v. administration): 0.79 % ID/g
- Concentration of radioactivity, brain, Mean ([1]; 3 H after i.v. administration): 1.73 % ID/g
- Concentration of radioactivity, kidney, Mean ([1]; 3 H after i.v. administration): 4.19 % ID/g
- Concentration of radioactivity, liver, Mean ([1]; 3 H after i.v. administration): 5.21 % ID/g
- Concentration of radioactivity, lungs, Mean ([1]; 3 H after i.v. administration): 3.46 % ID/g
- Concentration of radioactivity, muscle (skeletal muscle), Mean ([1]; 3 H after i.v. administration): 0.49 % ID/g
- Concentration of radioactivity, pancreas, Mean ([1]; 3 H after i.v. administration): 2.48 % ID/g
- Concentration of radioactivity, spleen, Mean ([1]; 3 H after i.v. administration): 2.79 % ID/g
- Concentration of radioactivity, uvea (pigmented tissues of the eye), Mean ([1]; 3 H after i.v. administration): 12.78 % ID/g
- Concentration of radioactivity, B 16 (tumour), Mean ([1]; 6 H after i.v. administration): 9.84 % ID/g
- Concentration of radioactivity, Ic (intestinal contents), Mean ([1]; 6 H after i.v. administration): 79.85 % ID/g
- Concentration of radioactivity, Sc (stomach contents), Mean ([1]; 6 H after i.v. administration): 21.84 % ID/g
- Concentration of radioactivity, blood (measured in the heart cavity), Mean ([1]; 6 H after i.v. administration): 0.67 % ID/g
- Concentration of radioactivity, brain, Mean ([1]; 6 H after i.v. administration): 0.74 % ID/g
- Concentration of radioactivity, kidney, Mean ([1]; 6 H after i.v. administration): 2.50 % ID/g
- Concentration of radioactivity, liver, Mean ([1]; 6 H after i.v. administration): 3.63 % ID/g
- Concentration of radioactivity, lungs, Mean ([1]; 6 H after i.v. administration): 1.70 % ID/g
- Concentration of radioactivity, muscle (skeletal muscle), Mean ([1]; 6 H after i.v. administration): 0.31 % ID/g
- Concentration of radioactivity, pancreas, Mean ([1]; 6 H after i.v. administration): 1.46 % ID/g
- Concentration of radioactivity, spleen, Mean ([1]; 6 H after i.v. administration): 1.68 % ID/g
- Concentration of radioactivity, uvea (pigmented tissues of the eye), Mean ([1]; 6 H after i.v. administration): 13.20 % ID/g
- Concentration of radioactivity, B 16 (tumour), Mean ([1]; 24 H after i.v. administration): 8.16 % ID/g
- Concentration of radioactivity, Ic (intestinal contents), Mean ([1]; 24 H after i.v. administration): 3.31 % ID/g
- Concentration of radioactivity, Sc (stomach contents), Mean ([1]; 24 H after i.v. administration): 2.10 % ID/g
- Concentration of radioactivity, blood (measured in the heart cavity), Mean ([1]; 24 H after i.v. administration): 0.10 % ID/g
- Concentration of radioactivity, brain, Mean ([1]; 24 H after i.v. administration): 0.00 % ID/g
- Concentration of radioactivity, kidney, Mean ([1]; 24 H after i.v. administration): 0.83 % ID/g
- Concentration of radioactivity, liver, Mean ([1]; 24 H after i.v. administration): 1.61 % ID/g
- Concentration of radioactivity, lungs, Mean ([1]; 24 H after i.v. administration): 0.37 % ID/g
- Concentration of radioactivity, muscle (skeletal muscle), Mean ([1]; 24 H after i.v. administration): 0.19 % ID/g
- Concentration of radioactivity, pancreas, Mean ([1]; 24 H after i.v. administration): 0.09 % ID/g
- Concentration of radioactivity, spleen, Mean ([1]; 24 H after i.v. administration): 1.22 % ID/g
- Concentration of radioactivity, uvea (pigmented tissues of the eye), Mean ([1]; 24 H after i.v. administration): 8.81 % ID/g
- Concentration of radioactivity, B 16 (tumour), Mean ([1]; 72 H after i.v. administration): 0.84 % ID/g
- Concentration of radioactivity, Sc (stomach contents), Mean ([1]; 72 H after i.v. administration): 0.04 % ID/g
- Concentration of radioactivity, kidney, Mean ([1]; 72 H after i.v. administration): 0.71 % ID/g
- Concentration of radioactivity, liver, Mean ([1]; 72 H after i.v. administration): 0.61 % ID/g
- Concentration of radioactivity, uvea (pigmented tissues of the eye), Mean ([1]; 72 H after i.v. administration): 5.86 % ID/g
- Effective period (tumour): 18.2 h
- Biological period (tumour): 20.1 hours
- Faecal elimination 0-72 hours (Faeces) [2]: 61.7%
- Urinary and faecal elimination 0-72 hours (Total) [2]: 83.2%
- Urinary elimination 0-72 hours (Urine) [2]: 21.5%
- elimination route (in words) [2]: faecal route predominates
Compound: CCN(CC)CCNC(=O)c1cc2cc(I)ccc2[nH]1 [compound 10, N-(2-diethylaminoethyl)-5-iodoindole-2-carboxamide hydrochloride]
